{"source": "the NIST ThermoML archive (doi:10.1016/j.tca.2014.05.022)", "conditions": "DTA; for Normal melting temperature: Crystal", "note": "Several values for one entry are separate records, joined by “and”; a condition that tells them apart may be missing. Equal values may be shown once. Numbers after ± are expanded uncertainties."}
{"smiles": "CCCCCCCCCCCCCCCCO", "note": "[1-hexadecanol]", "values": [{"measurement": "Triple point temperature", "setting": "Crystal 1", "result": "323.3 ± 0.87 K and 323 ± 0.9 K"}, {"measurement": "Triple point temperature", "setting": "Crystal 2", "result": "322.3 ± 0.9 K and 322.2 ± 0.9 K"}, {"measurement": "Normal melting temperature", "result": "50 ± 0.5", "unit": "°C"}]}
{"smiles": "CCCCCCCCCCCCCCCCCCO", "note": "[1-octadecanol]", "values": [{"measurement": "Triple point temperature", "setting": "Crystal 1", "result": "331.6 ± 0.9", "unit": "K"}, {"measurement": "Triple point temperature", "setting": "Crystal 2", "result": "331 ± 0.9 K and 330.6 ± 0.9 K"}, {"measurement": "Normal melting temperature", "result": "58.5 ± 0.5", "unit": "°C"}]}
{"smiles": "CCCCCCCCCCCCCCO", "note": "[1-tetradecanol]", "values": [{"measurement": "Triple point temperature", "setting": "Crystal 1", "result": "311.2 ± 0.9 K and 311.4 ± 0.9 K"}, {"measurement": "Triple point temperature", "setting": "Crystal 2", "result": "310.2 ± 0.9 K and 310.4 ± 0.9 K"}, {"measurement": "Normal melting temperature", "result": "38.2 ± 0.5", "unit": "°C"}]}
{"smiles": "CCCCCCCCCCO", "note": "[decan-1-ol]", "values": [{"measurement": "Triple point temperature", "setting": "Crystal 1", "result": "280.6 ± 0.9 K and 280.8 ± 0.9 K"}, {"measurement": "Triple point temperature", "setting": "Crystal 2", "result": "280.2 ± 0.9 K and 279.9 ± 0.9 K"}, {"measurement": "Triple point temperature", "setting": "Crystal 3", "result": "276.2 ± 0.9 K and 277.5 ± 0.9 K"}, {"measurement": "Normal melting temperature", "result": "7.5 ± 0.5", "unit": "°C"}]}
{"smiles": "CCCCCCCCCCCCO", "note": "[dodecan-1-ol]", "values": [{"measurement": "Triple point temperature", "setting": "Crystal 1", "result": "297.8 ± 0.9 K and 297.4 ± 0.9 K"}, {"measurement": "Triple point temperature", "setting": "Crystal 2", "result": "296.4 ± 0.9", "unit": "K"}, {"measurement": "Normal melting temperature", "result": "24.7 ± 0.5 °C and 24.2 ± 0.5 °C"}]}
{"smiles": "CCCCCCCCO", "note": "[octan-1-ol]", "values": [{"measurement": "Triple point temperature", "setting": "Crystal 1", "result": "258.7 ± 0.9 K and 258.3 ± 0.9 K"}, {"measurement": "Triple point temperature", "setting": "Crystal 2", "result": "255 ± 0.5 K and 256 ± 0.9 K"}, {"measurement": "Normal melting temperature", "result": "-14.4 ± 0.5", "unit": "°C"}]}
